Measurements: patent publication US20240350421A1, “Cationic Polymeric Nanoparticles and Their Uses in Treating Diseases” (University of Connecticut, priority 2021, published 2024)

Assay: Cell proliferation (trypan blue) assay in HeLa cells
Assay type: cell-based
Conditions: human, read-out: reduction in cell viability
Experimental: 200,000 PBMC cells were seeded in a plate (12 well) overnight and treated with 2 mg/mL blank F2 NPs and 150 μL of lipofectamine. After 24 h, cells were stained with trypan blue dye and total live cells were determined by cell counter (Bio-Rad, USA). For cytotoxicity assay in HeLa cells, 50,000 HeLa cells were seeded in plates (24 well) and treated with paclitaxel (PTX) F2 NPs for 24 h, and cell viability was measured by staining with trypan blue dye.

`CC(=O)O[C@H]1C(=O)[C@@]2(C)[C@H]([C@H](OC(=O)c3ccccc3)[C@]3(O)C[C@H](OC(=O)[C@H](O)[C@@H](NC(=O)c4ccccc4)c4ccccc4)C(C)=C1C3(C)C)[C@]1(OC(C)=O)CO[C@@H]1C[C@@H]2O` [PTX suspension, paclitaxel] gave a cytotoxicity at 24 h of 17%.
